Source: ChEMBL document CHEMBL1146665 (Bioorg Med Chem Lett, 2004)
pEC50, pKi: −log10 of the molar value.

How the values were obtained:
[1] = molecular target: Melatonin receptor type 1A (Homo sapiens, UniProt P48039); assay: Binding affinity towards human melatonin receptor type 1A
[2] = molecular target: T1, Melatonin receptor type 1B (Homo sapiens, UniProt P49286); assay: Binding affinity towards human melatonin receptor type 1B
T1 sequence (P49286 whole entry): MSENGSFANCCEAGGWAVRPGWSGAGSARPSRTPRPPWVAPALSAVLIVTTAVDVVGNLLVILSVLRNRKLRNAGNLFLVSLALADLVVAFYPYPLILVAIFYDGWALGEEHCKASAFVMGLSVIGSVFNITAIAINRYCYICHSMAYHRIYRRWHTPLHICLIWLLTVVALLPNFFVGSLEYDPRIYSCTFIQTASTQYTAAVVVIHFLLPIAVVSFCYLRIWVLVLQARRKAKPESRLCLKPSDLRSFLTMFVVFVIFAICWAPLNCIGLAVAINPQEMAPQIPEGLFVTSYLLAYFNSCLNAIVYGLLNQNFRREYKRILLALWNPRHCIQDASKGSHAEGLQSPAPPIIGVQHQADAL

NIH3T3 = assay: Inhibition of forskolin-stimulated cAMP accumulation in NIH3T3 cells expressing MT2 receptor; type: functional, cell-based; details: Mus musculus

Chain of Melatonin receptor type 1A (P48039 whole entry): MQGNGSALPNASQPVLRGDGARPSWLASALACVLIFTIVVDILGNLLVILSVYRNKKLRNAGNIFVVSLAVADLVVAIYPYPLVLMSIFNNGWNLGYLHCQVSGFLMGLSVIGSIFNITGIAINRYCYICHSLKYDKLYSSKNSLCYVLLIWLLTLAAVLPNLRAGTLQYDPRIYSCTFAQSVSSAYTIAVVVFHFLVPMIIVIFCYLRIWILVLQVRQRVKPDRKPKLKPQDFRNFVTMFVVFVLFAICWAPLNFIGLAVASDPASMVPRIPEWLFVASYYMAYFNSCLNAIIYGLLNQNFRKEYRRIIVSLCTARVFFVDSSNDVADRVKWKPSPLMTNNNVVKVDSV

| Compound | pKi [1] | pKi [2] | pEC50 (NIH3T3) |
| --- | --- | --- | --- |
| CCCC(=O)Nc1ccc(N(C)c2cccc(OC)c2)cc1 | 8.96 | 10.00 | – |
| CCC(=O)Nc1ccc(Oc2cccc(OC)c2)cc1 | 6.52 | 8.17 | – |
| COc1cccc(Nc2ccc(NC(C)=O)cc2)c1 | 7.08 | 8.38 | – |
| CCCC(=O)Nc1ccc(Oc2ccccc2OC)cc1 | < 6.30 | 6.97 | – |
| CCC(=O)Nc1ccc(Nc2cccc(OC)c2)cc1 | 7.21 | 8.74 | – |
| CCCC(=O)Nc1ccc(Nc2cccc(OC)c2)cc1 | 7.51 | 9.41 | – |
| C/C=C/C(=O)Nc1ccc(Oc2cccc(OC)c2)cc1 | 7.01 | 8.68 | – |
| COc1cccc(N(C)c2ccc(NC(=O)C3CC3)cc2)c1 | 7.92 | 8.32 | – |
| CCCC(=O)Nc1ccc(S(=O)(=O)c2cccc(OC)c2)cc1 | < 6.30 | 8.00 | – |
| COc1cccc(Oc2ccc(NC(=O)C(C)C)cc2)c1 | < 6.30 | 6.91 | – |
| COc1cccc(Oc2ccc(NC(=O)CC(C)C)cc2)c1 | < 6.30 | 7.82 | – |
| COc1cccc(Nc2ccc(NC(=O)C3CC3)cc2)c1 | 7.21 | 7.19 | – |
| CCNC(=O)Nc1ccc(Oc2cccc(OC)c2)cc1 | < 6.30 | 6.60 | – |
| CCCC(=O)Nc1ccc(N(C)c2cccc3c2CCO3)cc1 | 7.44 | 9.31 | – |
| CCC(=O)Nc1ccc(N(C)c2cccc(OC)c2)cc1 | 9.00 | 9.77 | – |
| CCCC(=O)Nc1ccc(Cc2cccc(OC)c2)cc1 | 7.96 | 9.92 | – |
| CCCC(=O)Nc1ccc(Cc2cccc3occc23)cc1 | 7.04 | 9.11 | – |
| C#CCC(=O)Nc1ccc(Oc2cccc(OC)c2)cc1 | < 6.30 | 6.96 | – |
| COc1cccc(N(C)c2ccc(NC(=O)C(C)C)cc2)c1 | 6.97 | 8.26 | – |
| CCCC(=O)Nc1ccc(Oc2cccc3c2OCCO3)cc1 | 7.04 | 8.33 | – |
| COc1cccc(Oc2ccc(NC(C)=O)cc2)c1 | 7.08 | 8.39 | – |
| COc1cccc(N(C)c2ccc(NC(C)=O)cc2)c1 | 10.30 | 9.64 | – |

Further lines, with some results ahead:

| pKi [1] | pKi [2] | Compound | pEC50 (NIH3T3) |
| --- | --- | --- | --- |
| < 6.30 | 7.57 | CCCC(=O)Nc1cccc(Oc2cccc(OC)c2)c1 | – |
| 7.47 | 8.14 | CCOC(=O)Nc1ccc(N(C)c2cccc(OC)c2)cc1 | – |
| 7.20 | 9.12 | CCCC(=O)Nc1ccc(Oc2cccc(OC)c2)cc1 | 8.97 |
| < 6.30 | – | CCCCC(=O)Nc1ccc(Oc2cccc(OC)c2)cc1 | – |
| 6.74 | 8.23 | COCC(=O)Nc1ccc(Oc2cccc(OC)c2)cc1 | – |
| 7.00 | 7.89 | COc1cccc(Oc2ccc(NC(=O)C3CC3)cc2)c1 | – |
| 7.74 | 9.17 | CCCC(=O)Nc1ccc(Oc2cccc3c2CCO3)cc1 | – |
| 7.54 | 9.72 | CCCC(=O)Nc1ccc(Sc2cccc(OC)c2)cc1 | – |
| < 6.30 | 7.08 | COc1cccc(Nc2ccc(NC(=O)C(C)C)cc2)c1 | – |
| < 6.30 | 6.82 | CCOC(=O)Nc1ccc(Nc2cccc(OC)c2)cc1 | – |
| < 6.30 | 7.41 | CCCC(=O)Nc1ccc(Nc2cccc3c2CCO3)cc1 | – |
| < 6.30 | < 6.40 | CCCC(=O)Nc1ccc(Oc2ccc(OC)cc2)cc1 | – |
| 7.39 | 9.15 | CCCC(=O)Nc1ccc(Cc2cccc3c2CCO3)cc1 | – |
| < 6.30 | 7.48 | CCCC(=O)Nc1ccc(C(=O)c2cccc(OC)c2)cc1 | – |
| < 6.30 | 6.89 | CCCC(=O)Nc1ccccc1Oc1cccc(OC)c1 | – |
